From patent US20140135310A1, “SULPHONAMIDE DERIVATIVES OF ALICYCLIC AMINES FOR THE TREATMENT OF CENTRAL NERVOUS SYSTEM DISEASES” (Adamed Sp. z o.o., priority 2011, published 2014)

Tests used:
M3 muscarinic receptors = target: T1, M3 muscarinic receptors (Homo sapiens, UniProt P20309); experiment: Radioligand binding assay, muscarinic M3 receptors; settings: test compound 1×10^−6 M
T1 construct: expressed in transfected cells; host or cells: CHO cells
Method in brief: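 Radioligand competition binding, detected by scintillation counting; non-specific binding defined with excess unlabelled ligand. Results given as % inhibition of control specific binding; IC50 from Hill-equation fit of competition curves, Ki via Cheng-Prusoff with radioligand KD from Scatchard plot.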

[1] = target: T2, H1 histaminergic receptors (Homo sapiens, UniProt P35367); experiment: Radioligand binding assay, histaminergic H1 receptors; settings: human recombinant (HEK-293 cells), [3H]pyrilamine 1 nM
T2 construct: expressed in transfected cells; host or cells: HEK-293 cells
Method in brief: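 Competition binding at human H1 receptors; specific binding taken as total minus non-specific binding in excess unlabelled ligand, scintillation read-out. IC50 from Hill-equation fit of competition curves; Ki by Cheng-Prusoff using radioligand concentration and Kd (from Scatchard plot).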

σ receptors = experiment: Radioligand binding assay, σ receptors; settings: rat cerebral cortex, [3H]DTG 8 nM
Excerpt: The specific ligand binding to the receptors is defined as the difference between the total binding and the non-specific binding determined in the presence of the excess of unlabelled ligand.
The results are expressed as a percent of control specific binding ((measured specific binding/control specific binding)×100) and as a percent inhibition of control specific binding (100−((measured specific binding/control specific binding)×100)) obtained in the presence of the test compounds. The specific ligand binding to the receptors is defined as the difference between the total binding and the nonspecific binding determined in the presence of an excess of unlabelled ligand. Scintillation counting was the method of detection of ligand binding. The IC50 values (concentration causing a half-maximal inhibition of control specific binding) were determined by non-linear regression analysis of the competition curves generated with mean replicate values using Hill equation curve fitting (Y=D+[(A−D)/(1+(C/C50)nH)], where Y=specific binding, D=minimum specific binding, A=maximum specific binding, C=compound concentration, C50=IC50, and nH=slope factor). […] The inhibition constants (Ki) were calculated using the Cheng Prusoff equation (Ki=IC50/(1+(L/KD)), where L=concentration of radioligand in the assay, and KD=affinity of the radioligand for the receptor). A scatchard plot was used to determine the Kd.

[2] = target: dopaminergic receptors D2 (Homo sapiens, UniProt P14416); experiment: Radioligand binding assay, dopaminergic D2 receptors; settings: for inhibition at 1 µM / D2 [%]: binding assay, test compound 1×10^−6 M; for Ki: read-out: Inhibition constants Ki for D2 receptors, D2
Method in brief: (§1)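 Scintillation read-out. Specific = total − nonspecific (excess cold ligand). Data as % of control specific binding / % inhibition; IC50 by Hill fit; Ki = IC50/(1+L/KD), KD from Scatchard plot.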

5-HT2A receptor = target: T3, 5-HT2A receptor (Homo sapiens, UniProt P28223); experiment: Radioligand binding assay, serotoninergic 5-HT2A receptors; settings: for Ki: read-out: Inhibition constants Ki, 5-HT2A; for 5-HT2A [%] / inhibition at 1 µM: binding assay result in %, Table 5a
T3 construct: purchased PerkinElmer
Method in brief: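 Competition curves from scintillation-counted specific binding (total minus binding with excess unlabelled ligand) were Hill-fitted to give IC50, converted to Ki via Cheng-Prusoff using Scatchard-derived Kd.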

[3] = target: dopaminergic receptors D3 (Homo sapiens, UniProt P35462); experiment: Radioligand binding assay, dopaminergic D3 receptors; settings: test compound 1×10^−6 M
Method in brief: as §1

5-HT2C receptor = target: T4, 5-HT2C receptor (Homo sapiens, UniProt P28335); experiment: Radioligand binding assay, serotoninergic 5-HT2C receptors; settings: test compound 1×10^−6 M
T4 construct: expressed in transfected cells; host or cells: HEK-293 cells
T4 sequence (P28335 33-458): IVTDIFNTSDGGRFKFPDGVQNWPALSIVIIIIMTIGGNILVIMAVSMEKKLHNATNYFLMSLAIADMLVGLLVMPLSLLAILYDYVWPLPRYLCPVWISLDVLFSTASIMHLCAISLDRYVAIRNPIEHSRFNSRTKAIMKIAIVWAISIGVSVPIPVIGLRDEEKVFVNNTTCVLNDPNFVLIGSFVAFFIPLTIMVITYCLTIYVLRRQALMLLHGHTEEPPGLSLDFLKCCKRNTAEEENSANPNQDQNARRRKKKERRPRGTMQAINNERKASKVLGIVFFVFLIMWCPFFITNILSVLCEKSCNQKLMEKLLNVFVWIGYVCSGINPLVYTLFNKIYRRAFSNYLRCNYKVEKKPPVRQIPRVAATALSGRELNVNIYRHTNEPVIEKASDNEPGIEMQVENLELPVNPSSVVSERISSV

[4] = target: T5, 5-HT1A receptor (rat hippocampus) (Rattus norvegicus, UniProt P19327); experiment: Radioligand binding assay, serotoninergic 5-HT1A receptors; settings: binding assay result in %, Table 5a
T5 construct: hippocampus; from tissue; host or cells: rat hippocampus
T5 sequence (P19327 1-422): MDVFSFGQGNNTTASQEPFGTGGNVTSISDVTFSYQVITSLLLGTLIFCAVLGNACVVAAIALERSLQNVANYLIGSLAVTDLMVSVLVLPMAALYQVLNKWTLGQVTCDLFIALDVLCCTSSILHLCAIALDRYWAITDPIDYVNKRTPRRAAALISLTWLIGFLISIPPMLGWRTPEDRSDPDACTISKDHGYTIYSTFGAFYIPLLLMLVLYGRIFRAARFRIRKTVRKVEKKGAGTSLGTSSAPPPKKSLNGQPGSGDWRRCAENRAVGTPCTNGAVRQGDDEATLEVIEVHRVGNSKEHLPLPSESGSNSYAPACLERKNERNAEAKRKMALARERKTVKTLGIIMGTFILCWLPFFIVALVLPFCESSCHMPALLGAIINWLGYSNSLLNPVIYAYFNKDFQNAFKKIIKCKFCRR

[5] = tested on: α1 adrenergic receptors (rat cerebral cortex); experiment: Radioligand binding assay, adrenergic α1 receptors; settings: test compound 1×10^−6 M
Method in brief: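 Values derive from radioligand displacement, with non-specific binding defined by excess cold ligand and detection by scintillation. Hill-fit IC50s were converted to Ki via Cheng-Prusoff using Scatchard-derived Kd; percent inhibition of control specific binding also reported.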

T1 sequence (P20309 whole entry): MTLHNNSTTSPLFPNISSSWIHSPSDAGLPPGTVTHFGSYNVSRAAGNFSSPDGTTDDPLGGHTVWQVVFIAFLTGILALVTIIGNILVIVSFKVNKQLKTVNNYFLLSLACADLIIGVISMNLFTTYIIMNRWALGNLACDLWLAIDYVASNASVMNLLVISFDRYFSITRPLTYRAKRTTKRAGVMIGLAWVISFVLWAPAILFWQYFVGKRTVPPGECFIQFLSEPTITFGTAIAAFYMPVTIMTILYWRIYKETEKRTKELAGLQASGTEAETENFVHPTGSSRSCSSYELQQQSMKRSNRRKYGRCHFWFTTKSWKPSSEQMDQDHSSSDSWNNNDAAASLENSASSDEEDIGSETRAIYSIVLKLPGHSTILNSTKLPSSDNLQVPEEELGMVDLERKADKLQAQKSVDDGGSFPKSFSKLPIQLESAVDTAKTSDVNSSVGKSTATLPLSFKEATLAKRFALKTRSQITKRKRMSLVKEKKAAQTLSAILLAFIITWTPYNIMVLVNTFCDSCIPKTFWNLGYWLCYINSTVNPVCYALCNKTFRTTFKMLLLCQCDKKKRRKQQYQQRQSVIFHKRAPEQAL
dopaminergic receptors D3, sequence (P35462 whole entry): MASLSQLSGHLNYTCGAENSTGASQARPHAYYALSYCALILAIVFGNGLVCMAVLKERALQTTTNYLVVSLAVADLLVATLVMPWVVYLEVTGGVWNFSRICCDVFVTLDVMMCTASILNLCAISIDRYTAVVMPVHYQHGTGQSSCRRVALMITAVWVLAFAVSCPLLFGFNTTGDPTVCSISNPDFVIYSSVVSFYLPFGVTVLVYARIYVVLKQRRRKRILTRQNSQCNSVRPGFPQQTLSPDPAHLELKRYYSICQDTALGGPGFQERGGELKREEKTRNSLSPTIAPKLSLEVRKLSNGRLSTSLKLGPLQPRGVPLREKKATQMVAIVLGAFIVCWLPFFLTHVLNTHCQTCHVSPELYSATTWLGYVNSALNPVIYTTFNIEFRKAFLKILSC
T3 sequence (P28223 whole entry): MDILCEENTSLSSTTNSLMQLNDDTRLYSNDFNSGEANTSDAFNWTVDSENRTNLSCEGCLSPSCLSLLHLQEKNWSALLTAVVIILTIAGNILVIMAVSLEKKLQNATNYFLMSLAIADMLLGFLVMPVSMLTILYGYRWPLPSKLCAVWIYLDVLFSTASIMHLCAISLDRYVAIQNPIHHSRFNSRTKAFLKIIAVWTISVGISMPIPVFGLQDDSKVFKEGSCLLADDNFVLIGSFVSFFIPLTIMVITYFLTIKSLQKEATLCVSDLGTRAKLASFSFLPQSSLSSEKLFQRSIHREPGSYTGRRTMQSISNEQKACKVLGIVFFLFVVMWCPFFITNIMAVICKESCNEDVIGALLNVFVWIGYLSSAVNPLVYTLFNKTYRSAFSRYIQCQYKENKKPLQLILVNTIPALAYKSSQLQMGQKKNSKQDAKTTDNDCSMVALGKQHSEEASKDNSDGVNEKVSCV
T2 sequence (P35367 whole entry): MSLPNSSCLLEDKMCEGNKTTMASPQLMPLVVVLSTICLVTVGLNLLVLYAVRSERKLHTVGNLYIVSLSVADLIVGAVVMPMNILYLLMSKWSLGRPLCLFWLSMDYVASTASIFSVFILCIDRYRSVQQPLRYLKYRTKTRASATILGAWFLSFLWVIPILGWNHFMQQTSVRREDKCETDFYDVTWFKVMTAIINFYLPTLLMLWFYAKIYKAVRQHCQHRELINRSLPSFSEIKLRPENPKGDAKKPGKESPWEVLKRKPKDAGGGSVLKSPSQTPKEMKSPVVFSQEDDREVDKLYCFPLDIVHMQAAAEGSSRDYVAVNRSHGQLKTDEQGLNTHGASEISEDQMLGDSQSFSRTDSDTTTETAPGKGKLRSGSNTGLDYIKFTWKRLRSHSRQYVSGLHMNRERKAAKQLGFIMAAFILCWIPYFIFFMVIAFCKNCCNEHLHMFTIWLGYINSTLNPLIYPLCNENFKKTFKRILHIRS
dopaminergic receptors D2, sequence (P14416 whole entry): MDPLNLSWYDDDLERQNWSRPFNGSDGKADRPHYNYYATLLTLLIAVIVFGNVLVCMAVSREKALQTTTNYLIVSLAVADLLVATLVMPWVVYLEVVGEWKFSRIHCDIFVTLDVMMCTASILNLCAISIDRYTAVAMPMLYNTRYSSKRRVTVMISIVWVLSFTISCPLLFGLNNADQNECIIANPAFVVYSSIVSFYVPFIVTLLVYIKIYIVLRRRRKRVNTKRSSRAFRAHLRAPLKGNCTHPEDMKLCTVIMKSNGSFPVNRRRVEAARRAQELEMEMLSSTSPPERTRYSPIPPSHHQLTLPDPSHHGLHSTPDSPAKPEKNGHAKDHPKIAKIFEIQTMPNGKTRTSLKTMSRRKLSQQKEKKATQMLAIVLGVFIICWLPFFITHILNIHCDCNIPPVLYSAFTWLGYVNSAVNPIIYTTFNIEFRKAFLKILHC

Compound	inhibition at 1 µM (M3 muscarinic receptors)	inhibition at 1 µM [1]	σ [%] (σ receptors)	inhibition at 1 µM [2]	Ki [2]	Ki (5-HT2A receptor)	inhibition at 1 µM [3]	inhibition at 1 µM (5-HT2C receptor)	inhibition at 1 µM [4]	α1 [%] [5]	M3 [%] (M3 muscarinic receptors)	H1 [%] [1]	D2 [%] [2]	5-HT2A [%] (5-HT2A receptor)	D3 [%] [3]	5-HT2C [%] (5-HT2C receptor)	5-HT1A [%] [4]	inhibition at 1 µM (5-HT2A receptor)
Cc1c(S(=O)(=O)N[C@H]2CCN(CCCc3noc4cc(F)ccc34)C2)sc2ccc(Cl)cc12 [Compound 205, 5-Chloro-N-[(3S)-1-[3-(6-fluoro-1,2-benzoxazol-3-yl)propyl]pyrrolidin-3-yl]-3-methyl-benzothiophene-2-sulphonamide]	3%	50%	92%	99%	1.6 nM	1.6 nM	99%	86%	63%	71%								
Cc1cccc(S(=O)(=O)NC2CN(CCOc3cccc4c3OCCO4)C2)c1 [Compound 93, N-[1-[2-(2,3-Dihydro-1,4-benzodioxan-8-yloxy)ethyl]azetidin-3-yl]-3-methyl-benzenesulphonamide]			35%							52%	1%	34%	78%	72%	75%	50%	98%	
O=S(=O)(NC1CN(CCOc2cccc3[nH]ccc23)C1)c1ccc2ccccc2c1 [Compound 50, N-[1-[2-(1H-Indol-4-yloxy)ethyl]azetidin-3-yl]naphthalene-2-sulphonamide]	2%	34%	59%	96%			104%	54%	101%	88%								97%
O=S(=O)(NC1CCN(CCCc2noc3cc(F)ccc23)CC1)c1cccc2ccccc12 [Compound 34, N-[1-[3-(6-Fluoro-1,2-benzoxazol-3-yl)propyl]-4-piperidine]-naphthalene-1-sulphonamide]	12%	56%	50%	76%			58%	94%	32%	91%								98%
O=S(=O)(N[C@H]1CCN(CCCc2noc3cc(F)ccc23)C1)c1cc2ccc(Cl)cc2s1 [Compound 199, 6-Chloro-N-[(3S)-1-[3-(6-fluoro-1,2-benzoxazol-3-yl)propyl]pyrrolidin-3-yl]benzothiophene-2-sulphonamide]	38%	58%	80%	96%	4.4 nM	0.7 nM	88%	83%	38%	66%								
Cc1cccc(S(=O)(=O)NC2CCN(CCCc3c[nH]c4ccc(F)cc34)C2)c1 (centres unmarked) [Compound 78, N-[1-[3-(5-Fluoro-1H-indol-3-yl)propyl]pyrrolidin-3-yl]-3-methyl-benzenesulphonamide]	5%	65%	70%	89%			98%	78%	99%	39%								95%
O=S(=O)(N[C@@H]1CCN(CCCc2noc3cc(F)ccc23)C1)c1cc2ccccc2o1 [Compound 214, N-[(3R)-1-[3-(6-Fluoro-1,2-benzoxazol-3-yl)propyl]pyrrolidin-3-yl]benzo-furan-2-sulphonamide]	11%	52%	84%	97%	2.8 nM	2.1 nM	89%	65%	34%	91%								
O=S(=O)(N[C@@H]1CCN(CCCc2noc3cc(F)ccc23)C1)c1cc2ccc(Cl)cc2s1 [Compound 198, 6-Chloro-N-[(3R)-1-[3-(6-fluoro-1,2-benzoxazol-3-yl)propyl]pyrrolidin-3-yl]benzothiophene-2-sulphonamide]	37%	81%	86%	99%	1.8 nM	0.7 nM	97%	86%	45%	76%								
O=S(=O)(NC1CN(CCOc2cccc3c2OCCO3)C1)c1ccc(Cl)cc1 [Compound 92, 4-Chloro-N-[1-[2-(2,3-dihydro-1,4-benzodioxan-8-yloxy)ethyl]azetidin-3-yl]benzene-sulphonamide]			15%							47%	4%	6%	49%	60%	60%	52%	100%	
O=S(=O)(N[C@@H]1CCN(CCCc2noc3cc(F)ccc23)C1)c1csc2ccccc12 [Compound 224, N-[(3R)-1-[3-(6-Fluoro-1,2-benzoxazol-3-yl)propyl]pyrrolidin-3-yl]benzothiophene-3-sulphonamide]	25%	60%	91%	98%	8.7 nM	1.6 nM	87%	71%	76%	89%								
O=S(=O)(NCC1CN(CCOc2cccc3c2OCCO3)C1)c1cc2ccccc2o1 [Compound 186, N-[[1-[2-(2,3-Dihydro-1,4-benzodioxin-5-yloxy)ethyl]azetidin-3-yl]methyl]-benzofuran-2-sulphonamide]	-9%	17%	84%	77%			78%	79%	98%	80%								87%
O=S(=O)(NC1CCN(CCCc2c[nH]c3ccc(F)cc23)C1)c1ccc(Cl)cc1 (centres unmarked) [Compound 77, 4-Chloro-N-[1-[3-(5-fluoro-1H-indol-3-yl)propyl]pyrrolidin-3-yl]-benzenesulphonamide]	17%	54%	48%	93%			93%	77%	99%	29%								100%
